Marks after values point to notes of the source that are not given here.
How the values were obtained:
GSK3α = target: T1, GSK3α (Homo sapiens, UniProt P49840); experiment: GSK3α enzyme inhibition (Method 2), FRET Z-LYTE; type: biochemical
T1 construct: purchased Invitrogen
Method: (§1) The enzyme inhibitory activities of compounds disclosed herein are determined by FRET using synthetic peptides labelled with both donor and acceptor fluorophores (Z-LYTE, Invitrogen Ltd., Paisley, UK).
The inhibitory activities of compounds of the invention against the GSK 3α enzyme isoform (Invitrogen), are evaluated by determining the level of activation/phosphorylation of the target peptide. The GSK3-α protein (500 ng/mL, 2.5 μL) is mixed with the test compound (2.5 μL at either 4 μg/mL, 0.4 μg/mL, 0.04 μg/mL, or 0.004 μg/mL) for 2 hr at RT. The FRET peptide (8 μM, 2.5 μL), which is a phosphorylation target for GSK3α, and ATP (40 μM, 2.5 μL) are then added to the enzyme/compound mixture and the resulting mixture incubated for 1 hr. Development reagent (protease, 5 μL) is added for 1 hr prior to detection in a fluorescence microplate reader (Varioskan® Flash, ThermoFisher Scientific).
(§2) In all cases, the site-specific protease cleaves non-phosphorylated peptide only and eliminates the FRET signal. Phosphorylation levels of each reaction are calculated using the ratio of coumarin emission (donor) over fluorescein emission (acceptor), for which high ratios indicate high phosphorylation and low ratios indicate low phosphorylation levels.
This method follows the same steps as Method 1 above, but utilises a shorter period of mixing of the test compound (105 minutes instead of 2 hours) with the GSK3-α protein.

PBMCs [1] = experiment: LPS-induced IL-8 release in PBMC cells; type: cell-based; conditions: Homo sapiens, LPS-stimulated PBMCs, read-out: IC50 Values for Inhibition of Cytokine Release PBMCs IL-8
Method: Peripheral blood mononuclear cells (PBMCs) from healthy subjects are separated from whole blood using a density gradient (Lymphoprep, Axis-Shield Healthcare). The PBMCs are seeded in 96 well plates and treated with compounds at the desired concentration for 2 hours before addition of 1 ng/mL LPS (Escherichia Coli 0111:B4 from Sigma Aldrich) for 24 hours under normal tissue culture conditions (37° C., 5% CO2). The supernatant is harvested for determination of IL-8 and TNFα concentrations by sandwich ELISA (Duo-set, R&D systems) and read on the fluorescence microplate reader (Varioskan® Flash, ThermoFisher Scientific).

c-Src = target: T2, c-Src (Homo sapiens, UniProt P12931); experiment: c-Src enzyme inhibition, FRET Z-LYTE; type: biochemical
T2 construct: purchased Invitrogen
T2 sequence (P12931 whole entry): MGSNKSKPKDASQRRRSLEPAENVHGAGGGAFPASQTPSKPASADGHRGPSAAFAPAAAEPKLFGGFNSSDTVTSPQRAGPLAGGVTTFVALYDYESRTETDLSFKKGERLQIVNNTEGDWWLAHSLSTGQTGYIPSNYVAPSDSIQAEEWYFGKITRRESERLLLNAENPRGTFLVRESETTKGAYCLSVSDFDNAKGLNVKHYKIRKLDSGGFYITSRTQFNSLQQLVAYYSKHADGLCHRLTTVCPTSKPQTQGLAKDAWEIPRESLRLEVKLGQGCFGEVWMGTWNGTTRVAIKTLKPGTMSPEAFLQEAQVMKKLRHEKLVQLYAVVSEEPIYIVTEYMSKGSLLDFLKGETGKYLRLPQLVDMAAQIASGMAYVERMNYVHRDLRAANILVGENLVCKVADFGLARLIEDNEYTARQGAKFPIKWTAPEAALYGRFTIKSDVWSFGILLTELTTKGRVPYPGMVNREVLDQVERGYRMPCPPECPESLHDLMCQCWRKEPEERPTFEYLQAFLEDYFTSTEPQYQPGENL
Method: as §1
(§3) The inhibitory activities of compounds of the invention against c-Src and Syk enzymes (Invitrogen), are evaluated in a similar fashion to that described hereinabove. The relevant enzyme (3000 ng/mL or 2000 ng/mL respectively, 2.5 μL) is incubated with the test compound (either 4 μg/mL, 0.4 μg/mL, 0.04 μg/mL, or 0.004 μg/mL, 2.5 μL each) for 2 hr at RT. The FRET peptides (8 μM, 2.5 μL), and appropriate ATP solutions (2.5 μL, 800 μM for c-Src, and 60 μM ATP for Syk) are then added to the enzymes/compound mixtures and incubated for 1 hr. Development reagent (protease, 5 μL) is added for 1 hr prior to detection in a fluorescence microplate reader (Varioskan® Flash, ThermoFisher Scientific).
as §2

Syk = target: T3, Syk (Homo sapiens, UniProt P43405); experiment: Syk enzyme inhibition, FRET Z-LYTE; type: biochemical
T3 construct: purchased Invitrogen
Method: as §1, §3, §2

p38 MAPKα = target: T4, p38 MAPKα (Homo sapiens, UniProt Q16539); experiment: p38 MAPKα enzyme inhibition (Method 2), FRET Z-LYTE; type: biochemical
T4 construct: purchased Invitrogen
T4 sequence (Q16539 whole entry): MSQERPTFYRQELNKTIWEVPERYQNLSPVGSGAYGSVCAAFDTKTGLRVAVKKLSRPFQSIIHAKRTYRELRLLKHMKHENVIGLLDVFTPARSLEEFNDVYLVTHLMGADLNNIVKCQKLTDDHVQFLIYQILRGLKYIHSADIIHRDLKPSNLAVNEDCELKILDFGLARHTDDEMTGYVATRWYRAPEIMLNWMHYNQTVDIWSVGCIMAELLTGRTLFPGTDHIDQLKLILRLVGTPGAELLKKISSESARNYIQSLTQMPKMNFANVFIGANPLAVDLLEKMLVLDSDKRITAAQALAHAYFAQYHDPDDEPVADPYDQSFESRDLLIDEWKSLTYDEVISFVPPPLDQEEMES
Method: as §1
The inhibitory activities of test compounds against the p38 MAPKα isoform (MAPK14: Invitrogen), are evaluated indirectly by determining the level of activation/phosphorylation of the down-stream molecule, MAPKAP-K2. The p38 MAPKα protein (80 ng/mL, 2.5 μL) is mixed with the test compound (2.5 μL of either 4 μg/mL, 0.4 μg/mL, 0.04 μg/mL or 0.004 μg/mL) for 2 hr at RT. […] The mixture is incubated for 1 hr at RT. Development reagent (protease, 5 μL) is added for 1 hr prior to detection in a fluorescence microplate reader (Varioskan® Flash, ThermoFisher Scientific).
This method follows the same steps as Method 1 above, but utilises a higher concentration of the p38 MAPKα protein (2.5 μL of 200 ng/mL protein instead of 2.5 μL of 80 ng/mL protein) for mixing with the test compound.
as §2

Jurkat cells = experiment: Cell cytotoxicity assay (Jurkat cell viability); type: cell-based, human; conditions: 24 hours
Method: 1×10^5 Jurkat cells (immortalised human T lymphocytes) are added to the appropriate number of wells of a 96 well plate in 100 μL of media (RPMI supplemented with 10% foetal bovine serum). 1 μL of DMSO control (final concentration 1.0% v/v) or test compound (final concentration 20, 5 or 1 μg/mL) is added to the wells and incubated at 37° C., 5% CO2. After 24 hours, the plate is centrifuged at 1200 rpm for 3 minutes and the supernatant discarded. Cells are then resuspended in 150 μL (final concentration 7.5 μg/mL) of propidium iodide (PI) in PBS and incubated at 37° C., 5% CO2 for 15 minutes. After 15 minutes, cells are analysed by flow cytometry (BD accuri) using the FL3 window. The % viability is calculated as the % of cells that are PI negative in the test wells normalised to the DMSO control.

PBMCs [2] = experiment: IFN gamma release in CD3/CD28 stimulated PBMC cells; type: cell-based; conditions: Homo sapiens, read-out: IC50 Values for Inhibition of Cytokine Release PBMCs IFNγ
Method: (§4) PBMCs from healthy subjects are separated from whole blood using a density gradient (Lymphoprep, Axis-Shield Healthcare). Cells are added to a 96 well plate pre-coated with a mixture of CD3/CD28 monoclonal antibodies (0.3 μg/mL eBioscience and 3 μg/mL BD Pharmingen respectively). Compound at the desired concentration is then added to the wells and the plate left for 3 days under normal tissue culture conditions. Supernatants are harvested and IL-2 and IFN gamma release determined by Sandwich ELISA (Duo-set, R&D System). The IC50 is determined from the dose response curve.

PBMCs [3] = experiment: IL-2 release in CD3/CD28 stimulated PBMC cells; type: cell-based; conditions: Homo sapiens, read-out: IC50 Values for Inhibition of Cytokine Release PBMCs IL-2
Method: as §4

[4] = Hydrolytic stability study; type: physicochemical; conditions: DMSO/water (3:1); for % Parent Remaining, cumulative average from multiple experiments / % Parent Remaining: 1 mg/mL; for % Parent Remaining: experiment in which Example 2 was tested
Method: Chemical stability of compounds of the invention was assessed in a mixture of DMSO and water (3:1) at a test compound concentration of 1 mg/mL
General HPLC Procedure • Agilent, Waters X-Select C18, 2.5 μm, 4.6×30 mm column, 4 min method, 5-95% • MeCN/water (0.1% formic acid). • Flow rate 2.5 ml/min. • Column Oven Temperature 40° C. • Detection 254 nm.
Sample Preparation • A 1.0 mg sample of test compound was dissolved in 1 mL of DMSO/water (3:1) and the resulting mixture was stirred at rt overnight.
Recording Stability • A 50 μL aliquot of the test solution was removed and analysed in duplicate by 5 μL HPLC injections. The peak area for the test compound (taken to be 100% product, 0% degradation) was recorded following manual integration of the corresponding UV trace. The area retention time was also recorded. • The test solution was heated to 60° C. internal temperature (65° C. block temperature), with stirring, and timing commenced once the target temperature had been reached. After 5 and 24 h, samples were removed and analysed by HPLC (5 μL injections). In all cases, 5 μL injections were used and the samples analysed in duplicate. • The peak areas for the test compounds were recorded at both subsequent timepoints and the % decomposition calculated from the % change in peak area over time.

T1 sequence (P49840 whole entry): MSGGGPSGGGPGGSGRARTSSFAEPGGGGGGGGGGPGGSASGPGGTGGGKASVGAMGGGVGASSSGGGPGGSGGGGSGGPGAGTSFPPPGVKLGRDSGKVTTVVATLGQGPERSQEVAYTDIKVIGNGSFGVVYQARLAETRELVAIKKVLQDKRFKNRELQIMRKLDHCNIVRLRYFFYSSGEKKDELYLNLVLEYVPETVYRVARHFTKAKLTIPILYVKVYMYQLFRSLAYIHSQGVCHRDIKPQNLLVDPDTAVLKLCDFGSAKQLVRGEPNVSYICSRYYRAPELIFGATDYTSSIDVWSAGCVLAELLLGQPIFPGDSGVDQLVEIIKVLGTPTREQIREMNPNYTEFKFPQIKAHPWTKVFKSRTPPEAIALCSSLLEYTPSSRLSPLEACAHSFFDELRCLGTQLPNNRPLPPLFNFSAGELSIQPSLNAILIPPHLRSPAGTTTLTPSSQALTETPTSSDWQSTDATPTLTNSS

IC50 (GSK3α) [nM]	IC50 (c-Src) [nM]	IC50 (Syk) [nM]	IC50 (p38 MAPKα) [nM]	Structure (SMILES)	IC50 (PBMCs [1]) [nM]	% Viability at 1 μg/mL (Jurkat cells) [%]	% Viability at 5 μg/mL (Jurkat cells) [%]	% Viability at 20 μg/mL (Jurkat cells) [%]	IC50 (PBMCs [2]) [nM]	other results
> 14500	14	> 1450	776	COCCOCCOCCOc1cc(Nc2ncc3cc(-c4cc(C(=O)Nc5cccc(C(F)(F)F)c5)ccc4C)ccc3n2)cc(OC)c1 [Example 1, 3-(2-((3-Methoxy-5-(2-(2-(2-methoxyethoxy)ethoxy)ethoxy)phenyl)amino)quinazolin-6-yl)-4-methyl-N-(3-(trifluoromethyl)phenyl)benzamide]	134	–	–	–	–	–
> 12800	–	–	–	COc1cc(Nc2ncc3cc(-c4cc(C(=O)Nc5cc(C(C)(C)C)cc(P(C)(C)=O)c5OC)ccc4C)ccc3n2)cc(C(=O)NCCN2CCOCC2)c1 [Example 4, N-(5-(tert-Butyl)-3-(dimethylphosphoryl)-2-methoxyphenyl)-3-(2-((3-methoxy-5-((2-morpholinoethyl)carbamoyl)phenyl)amino)quinazolin-6-yl)-4-methylbenzamide]	14.8	–	–	–	–	–
> 12600	–	–	–	COc1cc(Nc2ncc3cc(-c4cc(C(=O)Nc5cc(C(C)(C)C)cc(NS(C)(=O)=O)c5OC)ccc4C)ccc3n2)cc(C(=O)NCCN2CCOCC2)c1 [Example 5, N-(5-(tert-butyl)-2-methoxy-3-(methylsulfonamido)phenyl)-3-(2-((3-methoxy-5-((2-morpholinoethyl)carbamoyl)phenyl)amino)quinazolin-6-yl)-4-methylbenzamide]	10.3	116.5	48.8	44.6	30.4	IC50 (PBMCs [3]): 38.7 nM
–	–	–	–	COc1cc(Nc2ncc3cc(-c4cc(C(=O)Nc5cc(C(C)(C)C)cc(NS(C)(=O)=O)c5OC)ccc4C)ccc3n2)ccc1C(=O)O [Example 8, 4-((6-(5-((5-(tert-Butyl)-2-methoxy-3-(methylsulfonamido)phenyl)carbamoyl)-2-methylphenyl)quinazolin-2-yl)amino)-2-methoxybenzoic acid]	4	91.1	65.8	30.6	–	–
–	–	–	–	COc1cc(Nc2ncc3cc(-c4cc(C(=O)Nc5cc(C(C)(C)C)cc(NS(C)(=O)=O)c5OC)ccc4C)ccc3n2)ccc1C(=O)N(C)CCN1CCOCC1 [Example 9, 4-((6-(5-((5-(tert-Butyl)-2-methoxy-3-(methylsulfonamido)phenyl)carbamoyl)-2-methylphenyl)quinazolin-2-yl)amino)-2-methoxy-N-methyl-N-(2-morpholinoethyl)benzamide]	3.1	63.0	38.4	28.7	–	–
–	20	> 1160	24	COc1c(NC(=O)c2ccc(C)c(-c3ccc4nc(Nc5cc(OS(C)(=O)=O)cc(C(=O)NCCN6CCOCC6)c5)ncc4c3)c2)cc(C(C)(C)C)cc1NS(C)(=O)=O [Example 10, 3-((6-(5-((5-(tert-Butyl)-2-methoxy-3-(methylsulfonamido)phenyl)carbamoyl)-2-methylphenyl)-quinazolin-2-yl)amino)-5-((2-morpholinoethyl)carbamoyl)phenyl methanesulfonate]	3.5	91.5	82.5	77.8	13.1	–
–	4	190	8	COc1cc(Nc2ncc3cc(-c4cc(C(=O)Nc5cc(C(C)(C)C)cc(NS(C)(=O)=O)c5OC)ccc4C)ccc3n2)ccc1C(=O)N1CCS(=O)(=O)CC1 [Example 12, N-(5-(tert-Butyl)-2-methoxy-3-(methylsulfonamido)phenyl)-3-(2-((4-(1,1-dioxidothiomorpholine-4-carbonyl)-3-methoxyphenyl)amino)quinazolin-6-yl)-4-methylbenzamide]	2.3	86.4	79.3	81.0	12.6	–
–	–	–	–	C#Cc1cc(Nc2nccc(Oc3ccc(NC(=O)Nc4cc(C(C)C)nn4-c4ccc(C)cc4)c4ccccc34)n2)cc(C(=O)NCCN2CCOCC2)c1 [Reference Compound B, 3-ethynyl-5-((4-((4-(3-(3-isopropyl-1-(p-tolyl)-1H-pyrazol-5-yl)ureido)naphthalen-1-yl)oxy)pyrimidin-2-yl)amino)-N-(2-morpholinoethyl)benzamide]	–	–	–	–	–	% Parent Remaining, cumulative average from multiple experiments ([4]; 60° C., 300 min): 71.0%; % Parent Remaining ([4]; 60° C., 300 min): 93.3%; % Parent Remaining, cumulative average from multiple experiments ([4]; 60° C., 1440 min): 26.0%; % Parent Remaining ([4]; 60° C., 1440 min): 52.3%; % Parent Remaining, cumulative average from multiple experiments ([4]; time 0 min): 100^a (100^b) %; % Parent Remaining ([4]; time 0 min): 100^a (100^b) %; decomposition under the conditions of the hydrolytic stability experiment, in words ([4]; 60° C.): underwent substantial decomposition

— US20170209445A1, “KINASE INHIBITORS” (Respivert Limited, priority 2014, published 2017)
